The record followed here is patent publication US9133147B2, “Thrombin inhibitors” (Merck Sharp & Dohme Corp., priority 2012, dated 2015).

Counter-ions that a name gives are not always drawn.

The target in the experiment is human α-thrombin (Homo sapiens, UniProt P00734). The experiment is described as follows: In vitro assay for determining proteinase inhibition (thrombin Ki). It is filed as biochemical. The following applies: 25° C., 0.05 M TRIS buffer pH 7.4, 0.15 M NaCl, 0.1% PEG; sar-PR-pna or Z-GPR-afc substrate; competitive inhibition assumed. The source says:
Unless otherwise stated, all NMR determinations were made using 400 MHz field strength. Ki data was obtained according to the procedure described in Lewis, et al. Thromb. Res. 1993, 70, 173 (assays of human-thrombin and human trypsin), and Lewis, et al. Thromb. Haemostasis 1995, 74, 1107-1112.
Relevant in vitro assays are referenced in Morrissette, et al., Bioorg. Med. Chem. Lett. 2004, 14, 4161-4164 and described in Lewis, et al. Thromb. Res. 1993, 70, 173 (assays of human α-thrombin and human trypsin), and Lewis, et al. Thromb. Haemostasis 1995, 74, 1107-1112. The assays were carried out at 25° C. in 0.05 M TRIS buffer pH 7.4, 0.15 M NaCl, 0.1% PEG. Trypsin assays also contained 1 mM CaCl2. In assays wherein rates of hydrolysis of a p-nitroanilide (pna) substrate were determined, a Thermomax 96-well plate reader was used was used to measure (at 405 nm) the time dependent appearance of p-nitroaniline. sar-PR-pna was used to assay human α-thrombin (Km=125 μM) and bovine trypsin (Km=125 μM). p-Nitroanilide substrate concentration was determined from measurements of absorbance at 342 nm using an extinction coefficient of 8270 cm^−1M^−1.
In certain studies with potent inhibitors (Ki<10 nM) where the degree of inhibition of thrombin was high, a more sensitive activity assay was employed. In this assay the rate of thrombin catalyzed hydrolysis of the fluorogenic substrate benzyloxycarbonyl-Gly-Pro-Arg-7-amino-4-trifluoromethylcoumarin (Z-GPR-afc, Lewis S. D. et al. (1998) J. Biol. Chem. 273, pp. 4843-4854) (Km=27 μM) was determined from the increase in fluorescence at 500 nm (excitation at 400 nm) associated with production of 7-amino-4-trifluoromethyl coumarin. Concentrations of stock solutions of Z-GPR-afc were determined from measurements of absorbance at 380 nm of the 7-amino-4-trifluoromethyl coumarin produced upon complete hydrolysis of an aliquot of the stock solution by thrombin.
Activity assays were performed by diluting a stock solution of substrate at least tenfold to a final concentration ≦0.1 Km into a solution containing enzyme or enzyme equilibrated with inhibitor. Times required to achieve equilibration between enzyme and inhibitor were determined in control experiments. Initial velocities of product formation in the absence (VO) or presence of inhibitor (Vi) were measured. Assuming competitive inhibition, and that unity is negligible compared Km/[S], [I]/e, and [I]/e (where [S], [I], and e respectively represent the total concentrations, of substrate, inhibitor and enzyme), the equilibrium constant (Ki) for dissociation of the inhibitor from the enzyme can be obtained from the dependence of VO/Vi on [I] shown in the following equation. VO/Vi=1+[I]/Ki
As a reminder, the Ki is the equilibrium dissociation constant of an inhibitor or competing ligand from its target. Low readings indicate higher affinity, high ones lower affinity. Molecule `CC(C)(C)[C@@H](O)C(=O)N1CCOC[C@H]1C(=O)NCc1cc(Cl)ccc1CN` [Example 4, (3S)—N-[2-(aminomethyl)-5-chlorobenzyl]-4-[(2R)-2-hydroxy-3,3-dimethylbutanoyl]morpholine-3-carboxamide trifluoroacetate salt] returned an inhibition constant (Ki) of 32 nM. This lies in the double-digit nanomolar range.
As for `CN1CCN(C(=O)[C@H](O)C(C)(C)C)[C@H](C(=O)NCc2cc(Cl)ccc2CN)C1` [Example 3, (2S)—N-[2-(aminomethyl)-5-chlorobenzyl]-1-[(2R)-2-hydroxy-3,3-dimethylbutanoyl]-4-methylpiperazine-2-carboxamide trifluoroacetate salt], the figure is 34 nM; as for `CC(C)(C)[C@@H](O)C(=O)N1CCCC[C@H]1C(=O)NCc1cc(Cl)ccc1CN` [Example 1, (2S)—N-[2-(aminomethyl)-5-chlorobenzyl]-1-[(2R)-2-hydroxy-3,3-dimethylbutanoyl]piperidine-2-carboxamide trifluoroacetate salt], 7.3 nM; as for `CC(C)(C)[C@@H](O)C(=O)N1CCSC[C@H]1C(=O)NCc1cc(Cl)ccc1CN` [Example 5, (3R)—N-[2-(aminomethyl)-5-chlorobenzyl]-4-[(2R)-2-hydroxy-3,3-dimethylbutanoyl]thiomorpholine-3-carboxamide trifluoroacetate salt], 1.1 nM.
Next, `CC(C)(C)[C@@H](O)C(=O)N1CCS(=O)(=O)C[C@H]1C(=O)NCc1cc(Cl)ccc1CN` [Example 7, (3R)—N-[2-(aminomethyl)-5-chlorobenzyl]-4-[(2R)-2-hydroxy-3,3-dimethylbutanoyl]thiomorpholine-3-carboxamide 1,1-dioxide trifluoroacetate salt]: 52 nM; `CC(C)(C)[C@@H](O)C(=O)N1CCNC[C@H]1C(=O)NCc1cc(Cl)ccc1CN` [Example 2, (2S)—N-[2-(aminomethyl)-5-chlorobenzyl]-1-[(2R)-2-hydroxy-3,3-dimethylbutanoyl]piperazine-2-carboxamide bis trifluoroacetate salt]: 63 nM; `CC(C)(C)[C@@H](O)C(=O)N1CC[S+]([O-])C[C@H]1C(=O)NCc1cc(Cl)ccc1CN` (stereo partly drawn) [Example 6, (3R)—N-[2-(aminomethyl)-5-chlorobenzyl]-4-[(2R)-2-hydroxy-3,3-dimethylbutanoyl]thiomorpholine-3-carboxamide 1-oxide trifluoroacetate (salt)]: 78 nM.
